Experimental data from patent US9506013B2 (priority 2010, dated 2016).
Where “and” joins values, the source holds several entries; their conditions need not be identical. Identical values can stand only once.

How the values were obtained:
[1] = format: physicochemical
[2] = system: Staphylococcus aureas; format: cell-based
[3] = system: Pseudomonas aeruginosa; format: cell-based
[4] = system: Pseudomonas aeruginosa and Staphylococcus aureas; format: cell-based

CCC(CCCCCCCCC(=O)OCCOC)S(=O)(=O)[O-].[Na+] (centres unmarked) [C12-33, C12 eFAME Sulfonate]
Adjuvant 1 h, emulsion stability, mL separation: 0 mL | Anionic 1 h, emulsion stability, mL separation: 0 mL | Nonionic 1 h, emulsion stability, mL separation: 0.25 mL | Adjuvant 24 h, emulsion stability, mL separation: 0 mL | Anionic 24 h, emulsion stability, mL separation: 0 mL | Nonionic 24 h, emulsion stability, mL separation: 0.25 mL | % Separation 1 h [1]: 3.2 C and 3.9 C | % Separation 24 h [1]: 4 C and 4.1 C

COCCOC(=O)CCCCCCCCC(CCCCCCCC(=O)OCCOC)S(=O)(=O)[O-].[Na+] (centres unmarked) [Mix-61, C18 eFAME Sulfonate]
% Separation 1 h [1]: 3.8 C and 3.7 C | % Separation 24 h [1]: 4 C and 3.9 C

C10 6EO eFAME [C10-9]
% Kill, 400 ppm [2]: 23.4% | % Kill, DI water [2]: 38.4% | % Kill, 400 ppm [3]: 29.1% | % Kill, DI water [3]: 37.2% | Overall Rating [4]: good

C10 24EO eFAME Sulfonate [C10-30]
Adjuvant 1 h, emulsion stability, mL separation: 0 mL | Anionic 1 h, emulsion stability, mL separation: 0 mL | Nonionic 1 h, emulsion stability, mL separation: 0.25 mL | Adjuvant 24 h, emulsion stability, mL separation: 0 mL | Anionic 24 h, emulsion stability, mL separation: 0 mL | Nonionic 24 h, emulsion stability, mL separation: 0.25 mL | % Separation 1 h [1]: 3.8 C and 2.8 C | % Separation 24 h [1]: 4 C and 3 C

C10 24EO eFAME [C10-11]
% Kill, 400 ppm [2]: 30.9% | % Kill, DI water [2]: 42.5% | % Kill, 400 ppm [3]: 21.3% | % Kill, DI water [3]: 28.9% | Overall Rating [4]: good

C12 6EO eFAME Sulfonate [C12-10]
Adjuvant 1 h, emulsion stability, mL separation: 0 mL | Anionic 1 h, emulsion stability, mL separation: 0 mL | Adjuvant 24 h, emulsion stability, mL separation: 0 mL | Anionic 24 h, emulsion stability, mL separation: 0 mL | Nonionic 24 h, emulsion stability, mL separation: 0.25 mL | % Separation 1 h [1]: 4 C and 3.8 C | % Separation 24 h [1]: 4.1 C and 4 C

C12 6EO eFAME [C12-9]
% Kill, 400 ppm [2]: 3.2% | % Kill, DI water [2]: 36.2% | % Kill, 400 ppm [3]: 23.2% | % Kill, DI water [3]: 32.6% | Overall Rating [4]: good

C12 27EO eFAME Sulfonate [C12-32]
Adjuvant 1 h, emulsion stability, mL separation: 0 mL | Anionic 1 h, emulsion stability, mL separation: 0 mL | Nonionic 1 h, emulsion stability, mL separation: 0.5 mL | Adjuvant 24 h, emulsion stability, mL separation: 0 mL | Anionic 24 h, emulsion stability, mL separation: 0 mL | Nonionic 24 h, emulsion stability, mL separation: 0.5 mL | % Separation 1 h [1]: 3 C and 2.9 C | % Separation 24 h [1]: 3.2 C

C12 27EO eFAME [C12-11]
% Kill, 400 ppm [2]: 36.2% | % Kill, DI water [2]: 42.7% | % Kill, 400 ppm [3]: 30.1% | % Kill, DI water [3]: 34.9% | Overall Rating [4]: good
